Our source for the IC50 values is ChEMBL document CHEMBL3638757, “Pyridazinones, method of making, and method of use thereof” (2015).

SMILES strings stand for the structures.

The target in this experiment is Tyrosine-protein kinase BTK (Homo sapiens, UniProt Q06187). As to the kind of experiment: Biochemical Assay: A generalized procedure for a standard biochemical Btk Kinase Assay that can be used to test Formula I compounds is as follows. A master mix minus Btk enzyme is prepared containing IX Cell Signaling kinase buffer (25 mM Tris-HCl, pH 7.5, 5 mM beta- glycerophosphate, 2 mM dithiothreitol, 0.1 mM Na3V04, 10 mM MgCl2), 0.5 ul Promega PTK Biotinylated peptide substrate 2, and 0.01% BSA. A master mix plus Btk enzyme is prepared containing IX Cell Signaling kinase buffer, 0.5 ul PTK Biotinylated peptide substrate 2, 0.01% BSA, and 100 ng/well (0.06 mU/well) Btk enzyme. Btk enzyme is prepared as follows: full length human wildtype Btk (accession number NM-000061) with a C-terminal V5 and 6x His tag was subcloned into pFastBac vector for making baculo virus carrying this epitope-tagged Btk. Generation of baculovirus is done based on Invitrogen's instructions detailed in its published protocol "Bac-to-Bac Baculovirus Expression Systems".
Sequence of Tyrosine-protein kinase BTK (Q06187 whole entry): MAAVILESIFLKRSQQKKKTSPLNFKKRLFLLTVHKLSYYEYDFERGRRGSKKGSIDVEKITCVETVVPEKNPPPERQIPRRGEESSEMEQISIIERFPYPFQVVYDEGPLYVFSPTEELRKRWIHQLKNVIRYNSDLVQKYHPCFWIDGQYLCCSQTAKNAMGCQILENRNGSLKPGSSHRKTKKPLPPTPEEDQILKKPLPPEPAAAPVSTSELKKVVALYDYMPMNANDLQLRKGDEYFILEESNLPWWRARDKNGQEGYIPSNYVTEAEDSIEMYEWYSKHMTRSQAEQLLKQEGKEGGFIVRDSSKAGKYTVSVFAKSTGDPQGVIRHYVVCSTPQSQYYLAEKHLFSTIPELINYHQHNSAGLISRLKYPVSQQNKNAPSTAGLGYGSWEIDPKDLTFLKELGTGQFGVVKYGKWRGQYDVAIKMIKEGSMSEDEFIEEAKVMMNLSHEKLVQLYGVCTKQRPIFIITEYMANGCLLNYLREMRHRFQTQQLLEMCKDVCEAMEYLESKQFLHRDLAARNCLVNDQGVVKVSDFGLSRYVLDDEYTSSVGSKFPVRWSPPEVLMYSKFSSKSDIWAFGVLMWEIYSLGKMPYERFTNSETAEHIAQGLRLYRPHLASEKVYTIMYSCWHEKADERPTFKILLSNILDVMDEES

For the compound `Cc1cc(Nc2cc(-c3ccc(F)c(N4Cc5cc(C(C)(C)C)sc5C4=O)c3)n[nH]c2=O)nn1C`, the IC50 came to 9 nM.
